Results published in PMC11542736 (Cell reports. Physical science, 2024).

Target: TrpR^WT (Escherichia coli, UniProt P0A881)
Experiment: Ptrp-GFP reporter, flow cytometry
Format: cell-based
Settings: 1 mM ligand, E. coli Nissle 1917 trpR knockout, 37 °C, 8 h; derepression

Ptrp-GFP reporter, flow cytometry: IPA, IAA, and IAld
Structure (SMILES): O=C(O)Cc1c[nH]c2ccccc12 [IAA, indole-3-acetic acid]
